Assay results reported in US20210228562A1, “IRAK DEGRADERS AND USES THEREOF” (Kymera Therapeutics, Inc., priority 2019, published 2021).

The molecules below were run against T1, IRAK4 (Homo sapiens, UniProt Q9NWZ3) (assay: IRAK4 MSD Degradation in OCI-LY10). Details: OCI-LY10 cells, 24 hrs incubation; read-out: IRAK4 degradation in OCI-LY10 at 24 hrs: DC50.
T1 construct: endogenous in cells; host or cells: OCI-LY10
T1 sequence (Q9NWZ3 1-460): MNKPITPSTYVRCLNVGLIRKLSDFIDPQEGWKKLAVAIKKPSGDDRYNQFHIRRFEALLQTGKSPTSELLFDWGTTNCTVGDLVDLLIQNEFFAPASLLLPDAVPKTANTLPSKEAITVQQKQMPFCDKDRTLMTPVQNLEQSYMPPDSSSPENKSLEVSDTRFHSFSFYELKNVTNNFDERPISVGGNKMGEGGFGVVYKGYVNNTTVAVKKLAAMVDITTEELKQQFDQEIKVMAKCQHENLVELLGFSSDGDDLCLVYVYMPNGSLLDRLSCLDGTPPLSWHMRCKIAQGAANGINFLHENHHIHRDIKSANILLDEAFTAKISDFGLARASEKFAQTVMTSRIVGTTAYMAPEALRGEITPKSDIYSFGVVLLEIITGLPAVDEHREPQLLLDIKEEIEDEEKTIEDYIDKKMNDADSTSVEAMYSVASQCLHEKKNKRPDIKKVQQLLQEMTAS
Assay type: cell-based
Experimental: Degradation of IRAK4 in OCI-LY10 was quantitatively measured using Meso Scale Discovery technology. OCI-LY10 cells were seeded in 96-well plates (Corning 3799) with a density of 300,000 cells per well in 100 μL fresh media. Compounds were then added to the assay plates with a final top concentration of 1 to 10 μM in a 1:3 dilution series with total of 8 doses. The assay plates were then incubated for 4 to 24 hours at 37° C. under 5% CO2. The assay plates were then centrifuged for 5 minutes and the cell pellets were treated with 100 μL/well RIPA lysis buffer (Boston BioProducts BP-115D) with proteinase inhibitors. To prepare MSD assay plates (Meso Scale Discovery Catalog number L15XA-3), the plates were coated with 2 μg/mL capture antibody (mouse Anti-IRAK4 antibody [2H9], ab119942) in PBS, at 40 μL/well. The plates were then incubated overnight at 4° C., washed 3 times with 150 μL/well TBST buffer (Cell Signaling Technology, Catalog number 9997S) and blocked with 150 μL/well blocking buffer (Meso Scale Discovery Catalog number R93BA-4). Cell lysates were then added to MSD assay plates and the plates were incubated at room temperature for 1 hour. The plates were then washed 3 times with 150 μL/well TBST buffer and 25 μL/well primary detection antibody (rabbit Anti-IRAK4 antibody [Y279], from Abcam. Catalog number ab32511, 1 μg/mL). The assay plates were then incubated at room temperature for 1 hour, washed 3 times with 150 μL/well TBST buffer and 25 μL/well secondary detection antibody, SULFO-TAG anti-rabbit antibody were added (anti rabbit antibody from Meso Scale Discovery, Catalog number R32AB-1, 1 μg/mL). The assay plates were then incubated at room temperature for 1 hour, washed 3 times with 150 μL/well TBST buffer, and 150 μL/well MSD reading buffer (Meso Scale Discovery catalog number R92TC-2) was added. The plates were then analyzed by a MSD reader (Meso Scale Discovery, Model Quick Plex SQ 120). The data was then analyzed by software Prism 7.0 from GraphPad and the dose-depended IRAK4 degradation were fit using a three-parameter logistic equation to calculate DC50.
`CC(C)(O)c1cc2nc(N3CCC(CN4CCC5(CC4)CC(CNc4cccc6c4C(=O)N(C4CCC(=O)NC4=O)C6=O)C5)CC3)sc2cc1NC(=O)c1cccc(C(F)(F)F)n1` (centres unmarked) [I-35] was tested, and the DC50 was 50 to 100 nM.
`CC(C)(O)c1cc2nc([C@H]3CC[C@H](CN4CC5(CC(CCNc6cccc7c6C(=O)N(C6CCC(=O)NC6=O)C7=O)C5)C4)CC3)sc2cc1-n1ccc2ccccc2c1=O` (some centres unmarked) [I-40] showed a DC50 of 100 to 500 nM.
`CN(C[C@H]1CC[C@H](c2nc3cc(C(C)(C)O)c(NC(=O)c4cccc(C(F)(F)F)n4)cc3s2)CC1)[C@H]1CC[C@H](CNc2cccc3c2C(=O)N(C2CCC(=O)NC2=O)C3=O)CC1` (some centres unmarked) [I-41] gave a DC50 of less than 50 nM.
`COc1cc2nc([C@H]3CC[C@H](CN4CC5(CC(CCNc6cccc7c6C(=O)N(C6CCC(=O)NC6=O)C7=O)C5)C4)CC3)sc2cc1-n1ccc2ccccc2c1=O` (some centres unmarked) [I-42] was tested, and the DC50 was 50 to 100 nM.
`CC(C)(O)c1cc2nc([C@H]3CC[C@H](CN4CC(CCNc5cccc6c5C(=O)N(C5CCC(=O)NC5=O)C6=O)C4)CC3)sc2cc1NC(=O)c1cccc(C(F)(F)F)n1` (some centres unmarked) [I-45] was tested, and the DC50 was less than 50 nM.

Each molecule was assayed on OCI-LY10 cells (assay: CTG Cell Viability Assay - OCI-LY10). Details: Homo sapiens, 96 h, CellTiter-Glo, 4 days incubation.
Assay type: cell-based
Experimental: Compound-mediated viability effect on OCI-LY10 or SUDHL-2 was quantitatively determined using the CellTiter-Glo® Luminescent Cell Viability Assay kit from Promega (Catalog number G7570) following manufacturer's recommended procedures. Briefly, OCI-LY10 or SUDHL-2 cells were seeded into 384 well plates (Grenier Bio-One, Catalog number 781080) with a density of 10,000 cells per well. Compounds were then added to the assay plate with final top concentration of 10 μM and 1:3 dilution series with total of 9 doses. The final DMSO concentration was normalized to 0.2%. The assay plates were incubated at 37° C. for 4 days under 5% CO2. Then the assay plate was equilibrated at room temperature for 10 minutes. To determine cell viability, 30 μL CellTiter Glo reagent was added to each well and the assay plate was centrifuged at 1000 rpm for 30 second, incubated at room temperature for 10 min, and analyzed by detecting the luminescence using a multimode plate reader (EnVision 2105, PerkinElmer). The data was then analyzed by software Prism 7.0 from GraphPad and the dose response curves were fit using a three-parameter logistic equation to calculate IC50.
In the case of `CC(C)(O)c1cc2nc(N3CCC(CN4CCC5(CC4)CC(CNc4cccc6c4C(=O)N(C4CCC(=O)NC4=O)C6=O)C5)CC3)sc2cc1NC(=O)c1cccc(C(F)(F)F)n1` (centres unmarked) [I-35], the IC50 is reported as 500 to 1000 nM.
In the case of `CC(C)(O)c1cc2nc([C@H]3CC[C@H](CN4CC5(CC(CCNc6cccc7c6C(=O)N(C6CCC(=O)NC6=O)C7=O)C5)C4)CC3)sc2cc1-n1ccc2ccccc2c1=O` (some centres unmarked) [I-40], the IC50 is reported as less than 50 nM.
`CN(C[C@H]1CC[C@H](c2nc3cc(C(C)(C)O)c(NC(=O)c4cccc(C(F)(F)F)n4)cc3s2)CC1)[C@H]1CC[C@H](CNc2cccc3c2C(=O)N(C2CCC(=O)NC2=O)C3=O)CC1` (some centres unmarked) [I-41] was tested, and the IC50 was less than 50 nM.
`COc1cc2nc([C@H]3CC[C@H](CN4CC5(CC(CCNc6cccc7c6C(=O)N(C6CCC(=O)NC6=O)C7=O)C5)C4)CC3)sc2cc1-n1ccc2ccccc2c1=O` (some centres unmarked) [I-42] gave an IC50 of less than 50 nM.
In the case of `CC(C)(O)c1cc2nc([C@H]3CC[C@H](CN4CC(CCNc5cccc6c5C(=O)N(C5CCC(=O)NC5=O)C6=O)C4)CC3)sc2cc1NC(=O)c1cccc(C(F)(F)F)n1` (some centres unmarked) [I-45], the IC50 is reported as 100 to 500 nM.

The molecules below were run against T2, Ikaros (protein product of gene IKZF1) (Homo sapiens, UniProt Q13422+Q96SW2) (assay: Quantification of Ikaros degradation in OCI-LY10 cells (quantitative immunoblotting)). Details: 6 h treatment.
T2 construct: endogenous in cells; host or cells: OCI-LY10
T2 sequence (Q13422 whole entry): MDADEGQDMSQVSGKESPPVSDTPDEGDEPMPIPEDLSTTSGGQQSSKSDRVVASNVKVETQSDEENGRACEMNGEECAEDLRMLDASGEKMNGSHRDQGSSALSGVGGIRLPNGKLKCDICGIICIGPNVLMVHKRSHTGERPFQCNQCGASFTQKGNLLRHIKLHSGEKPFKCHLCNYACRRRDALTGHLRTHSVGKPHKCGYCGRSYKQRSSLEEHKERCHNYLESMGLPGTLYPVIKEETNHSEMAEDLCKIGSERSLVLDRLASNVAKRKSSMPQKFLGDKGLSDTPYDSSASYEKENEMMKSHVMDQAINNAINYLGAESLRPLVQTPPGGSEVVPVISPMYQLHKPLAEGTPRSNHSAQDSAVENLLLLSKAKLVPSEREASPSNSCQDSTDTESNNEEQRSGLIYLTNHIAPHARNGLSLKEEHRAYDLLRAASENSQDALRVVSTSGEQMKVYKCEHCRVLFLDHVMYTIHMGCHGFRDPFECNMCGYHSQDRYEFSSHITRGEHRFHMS
T2 sequence (Q96SW2 whole entry): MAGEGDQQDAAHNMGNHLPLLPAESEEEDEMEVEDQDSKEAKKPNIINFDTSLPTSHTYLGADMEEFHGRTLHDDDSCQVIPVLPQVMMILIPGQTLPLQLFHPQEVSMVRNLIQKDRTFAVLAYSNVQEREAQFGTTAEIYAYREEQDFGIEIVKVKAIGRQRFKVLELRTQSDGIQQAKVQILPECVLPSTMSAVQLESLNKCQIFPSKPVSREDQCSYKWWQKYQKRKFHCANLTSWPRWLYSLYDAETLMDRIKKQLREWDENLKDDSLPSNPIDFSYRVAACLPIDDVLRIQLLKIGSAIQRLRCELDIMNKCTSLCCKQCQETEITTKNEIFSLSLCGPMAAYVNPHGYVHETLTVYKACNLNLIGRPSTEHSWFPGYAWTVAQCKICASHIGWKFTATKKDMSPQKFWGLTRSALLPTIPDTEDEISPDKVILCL
T2 sequence (Q16531 whole entry partner): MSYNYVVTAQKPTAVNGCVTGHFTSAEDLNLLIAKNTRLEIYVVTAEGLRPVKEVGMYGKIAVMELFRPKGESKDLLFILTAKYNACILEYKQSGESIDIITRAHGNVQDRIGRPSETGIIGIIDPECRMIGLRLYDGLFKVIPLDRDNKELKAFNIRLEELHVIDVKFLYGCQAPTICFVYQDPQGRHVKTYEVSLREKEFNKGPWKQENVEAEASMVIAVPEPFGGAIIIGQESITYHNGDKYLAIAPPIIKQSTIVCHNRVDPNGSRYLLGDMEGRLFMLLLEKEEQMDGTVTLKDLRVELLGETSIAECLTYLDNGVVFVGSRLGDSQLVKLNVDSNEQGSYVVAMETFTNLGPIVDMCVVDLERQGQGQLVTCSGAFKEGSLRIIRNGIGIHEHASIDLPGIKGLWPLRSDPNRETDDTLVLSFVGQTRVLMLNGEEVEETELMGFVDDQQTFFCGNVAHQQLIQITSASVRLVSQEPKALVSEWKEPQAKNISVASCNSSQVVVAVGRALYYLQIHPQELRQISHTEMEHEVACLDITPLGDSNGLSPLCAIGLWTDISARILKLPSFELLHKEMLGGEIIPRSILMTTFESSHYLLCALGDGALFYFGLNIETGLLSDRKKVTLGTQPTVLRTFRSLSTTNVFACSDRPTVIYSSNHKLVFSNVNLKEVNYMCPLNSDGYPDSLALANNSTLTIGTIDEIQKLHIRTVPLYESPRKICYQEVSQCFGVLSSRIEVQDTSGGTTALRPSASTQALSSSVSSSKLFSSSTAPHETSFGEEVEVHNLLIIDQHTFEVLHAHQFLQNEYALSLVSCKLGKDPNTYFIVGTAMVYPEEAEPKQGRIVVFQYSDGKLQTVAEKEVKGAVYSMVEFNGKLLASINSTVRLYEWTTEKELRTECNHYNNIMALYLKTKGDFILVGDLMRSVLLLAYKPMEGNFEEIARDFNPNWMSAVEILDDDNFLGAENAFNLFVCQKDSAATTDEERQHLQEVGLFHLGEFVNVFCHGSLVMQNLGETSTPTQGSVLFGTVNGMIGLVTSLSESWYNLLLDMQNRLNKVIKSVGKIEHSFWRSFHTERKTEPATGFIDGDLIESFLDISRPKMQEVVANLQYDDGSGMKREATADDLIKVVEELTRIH
Assay type: cell-based
Experimental: (§1) Degradation of Ikaros (protein product of gene IKZF1) and Aiolos (protein product of gene IKZF3) were determined by quantitative immunoblotting as follows. OCI-LY10 cells, 2×10^6 cells/well, were treated with listed concentrations of IRAK4 degraders or control compounds in 6 well plates for 6 h. Cells were collected, washed with cold PBS, lysed in RIPA buffer (Boston BioProducts BP-115D) with protease/phosphatase inhibitor cocktail (Roche 05892791001/Roche 04906837001) and centrifuged at 13000 RPM for 20 min to precipitate insoluble material. The supernatant fraction was diluted in SDS-PAGE loading buffer (Beyotime Bio P0015) and 20 μL of each sample was resolved on 4-12% Bis-Tris SDS-PAGE gels (Novex, WG1402BOX). Resolved samples were transferred to nitrocellulose membranes by wet electro-transfer method at 250 mV for 1.5 h. The membrane was blocked with LICOR blocking buffer (LI-COR, 927-50000) for 1 hour, washed three times with TBST (CST #99975) for 5 minutes each and incubated with primary antibody prepared in block buffer with 0.1% Tween-20 (Solarbio, P8220) at 4° C. overnight. Ikaros antibody was rabbit monoclonal D6N9Y (CST #14859), at 1:1000 dilution. Aiolos antibody was rabbit monoclonal D1C1E (CST #15103), at 1:1000 dilution. Signal was normalized to mouse anti-beta-Actin monoclonal 8H10D10 (CST #3700) used at 1:10,000 dilution. After incubation in primary antibodies, membranes were washed three times with TBST, 5 minutes each, incubated with fluorescently labeled secondary antibodies anti-rabbit IgG (Licor, 926-32211) at 1:5000 dilution; anti-mouse IgG (LI-COR, 926-68070) at 1:5000 dilution, for 1 hour at RT. After incubation in secondary, membranes were washed three times with TBST, 5 minutes each and read on LICOR Odyssey imager. Data was reported as signal for Ikaros or Aiolos relative to signal for actin, and normalized to DMSO-treated control.
Molecule `CC(C)(O)c1cc2nc(N3CCC(CN4CCC5(CC4)CC(CNc4cccc6c4C(=O)N(C4CCC(=O)NC4=O)C6=O)C5)CC3)sc2cc1NC(=O)c1cccc(C(F)(F)F)n1` (centres unmarked) [I-35] has a DC50 of less than 50 nM.
`CC(C)(O)c1cc2nc([C@H]3CC[C@H](CN4CC5(CC(CCNc6cccc7c6C(=O)N(C6CCC(=O)NC6=O)C7=O)C5)C4)CC3)sc2cc1-n1ccc2ccccc2c1=O` (some centres unmarked) [I-40] showed a DC50 of less than 50 nM.
`CN(C[C@H]1CC[C@H](c2nc3cc(C(C)(C)O)c(NC(=O)c4cccc(C(F)(F)F)n4)cc3s2)CC1)[C@H]1CC[C@H](CNc2cccc3c2C(=O)N(C2CCC(=O)NC2=O)C3=O)CC1` (some centres unmarked) [I-41] was tested, and the DC50 was less than 50 nM.
`COc1cc2nc([C@H]3CC[C@H](CN4CC5(CC(CCNc6cccc7c6C(=O)N(C6CCC(=O)NC6=O)C7=O)C5)C4)CC3)sc2cc1-n1ccc2ccccc2c1=O` (some centres unmarked) [I-42] showed a DC50 of less than 50 nM.
With `CC(C)(O)c1cc2nc([C@H]3CC[C@H](CN4CC(CCNc5cccc6c5C(=O)N(C5CCC(=O)NC5=O)C6=O)C4)CC3)sc2cc1NC(=O)c1cccc(C(F)(F)F)n1` (some centres unmarked) [I-45] the DC50 was 100 to 500 nM.

What follows are molecules tested against T3, Aiolos (protein product of gene IKZF3) (Homo sapiens, UniProt Q96SW2+Q9UKT9) (assay: Quantification of Aiolos degradation in OCI-LY10 cells (quantitative immunoblotting)). Details: 6 h treatment.
T3 construct: endogenous in cells; host or cells: OCI-LY10
T3 sequence (Q9UKT9 whole entry): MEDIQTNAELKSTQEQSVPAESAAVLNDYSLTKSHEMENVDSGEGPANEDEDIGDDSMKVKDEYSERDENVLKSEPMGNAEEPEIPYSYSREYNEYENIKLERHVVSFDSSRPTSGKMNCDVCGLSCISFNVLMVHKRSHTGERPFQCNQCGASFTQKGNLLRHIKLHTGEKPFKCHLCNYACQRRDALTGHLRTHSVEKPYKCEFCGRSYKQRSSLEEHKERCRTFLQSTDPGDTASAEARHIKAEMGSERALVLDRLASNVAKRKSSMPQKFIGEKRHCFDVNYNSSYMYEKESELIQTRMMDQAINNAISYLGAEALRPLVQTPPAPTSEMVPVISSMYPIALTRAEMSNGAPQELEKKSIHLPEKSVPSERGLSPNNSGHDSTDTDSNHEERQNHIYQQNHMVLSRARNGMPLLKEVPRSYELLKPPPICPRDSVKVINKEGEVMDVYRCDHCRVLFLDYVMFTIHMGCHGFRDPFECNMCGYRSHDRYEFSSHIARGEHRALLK
T3 sequence (Q96SW2 whole entry): as the sequence (Q96SW2 whole entry) above
T3 sequence (Q16531 whole entry partner): as the sequence (Q16531 whole entry partner) above
Assay type: cell-based
Experimental: as §1
`CC(C)(O)c1cc2nc(N3CCC(CN4CCC5(CC4)CC(CNc4cccc6c4C(=O)N(C4CCC(=O)NC4=O)C6=O)C5)CC3)sc2cc1NC(=O)c1cccc(C(F)(F)F)n1` (centres unmarked) [I-35] gave a DC50 of less than 50 nM.
`CC(C)(O)c1cc2nc([C@H]3CC[C@H](CN4CC5(CC(CCNc6cccc7c6C(=O)N(C6CCC(=O)NC6=O)C7=O)C5)C4)CC3)sc2cc1-n1ccc2ccccc2c1=O` (some centres unmarked) [I-40] was tested, and the DC50 was less than 50 nM.
In the case of `CN(C[C@H]1CC[C@H](c2nc3cc(C(C)(C)O)c(NC(=O)c4cccc(C(F)(F)F)n4)cc3s2)CC1)[C@H]1CC[C@H](CNc2cccc3c2C(=O)N(C2CCC(=O)NC2=O)C3=O)CC1` (some centres unmarked) [I-41], the DC50 is reported as less than 50 nM.
`COc1cc2nc([C@H]3CC[C@H](CN4CC5(CC(CCNc6cccc7c6C(=O)N(C6CCC(=O)NC6=O)C7=O)C5)C4)CC3)sc2cc1-n1ccc2ccccc2c1=O` (some centres unmarked) [I-42] gave a DC50 of less than 50 nM.
In the case of `CC(C)(O)c1cc2nc([C@H]3CC[C@H](CN4CC(CCNc5cccc6c5C(=O)N(C5CCC(=O)NC5=O)C6=O)C4)CC3)sc2cc1NC(=O)c1cccc(C(F)(F)F)n1` (some centres unmarked) [I-45], the DC50 is reported as 100 to 500 nM.
